In general, inhibition refers to the share of the control response that was lost under treatment. A low value points to little suppression. The term Ki denotes a measure of affinity in units of concentration, obtained from inhibition or displacement. Lower therefore signals higher affinity.

Structures are written as SMILES.

For one assay, the system named is Proteasome. Description: Inhibitory activity against proteasome at 10 uM concentration. It is filed as subcellular.
The molecule `CC(C)(C)OC(=O)N[C@@H](Cc1ccccc1)C(=O)C(=O)NCCNS(=O)(=O)c1ccccc1` registered an inhibition of 14%. Regarding `N[C@@H](Cc1ccccc1)C(=O)C(=O)NCCNS(=O)(=O)c1ccccc1`, the inhibition came to 12%.

In the next assay the target is Proteasome. The assay is described as follows: Inhibitory activity against proteasome. It is filed as subcellular.
In turn, `CS(=O)(=O)NCCCC[C@H](NC(=O)C(CCCCCCCCN1C(=O)c2ccccc2C1=O)C1CCCC1)C(=O)N[C@@H](Cc1ccccc1)C(=O)C(=O)NCCNS(=O)(=O)c1ccccc1` (stereo partly drawn) returned a Ki of 41 nM. The molecule `O=C(NCCNS(=O)(=O)c1ccccc1)C(=O)[C@H](Cc1ccccc1)NC(=O)[C@H](CCCCNC(=O)c1cnccn1)NC(=O)C(CCCCCCCCN1C(=O)c2ccccc2C1=O)C1CCCC1` (stereo partly drawn) gave a Ki of 80 nM. The molecule `CC(C)(C)OC(=O)NCCNC(=O)C(=O)[C@H](Cc1ccccc1)NC(=O)[C@H](CCC/N=C(\N)N[N+](=O)[O-])NC(=O)C(CCCCCCCCN1C(=O)c2ccccc2C1=O)C1CCCC1` (stereo partly drawn) yielded a Ki of 2.2 nM. With `N/C(=N\CCC[C@H](NC(=O)C(CCCCCCCCN1C(=O)c2ccccc2C1=O)C1CCCC1)C(=O)N[C@@H](Cc1ccccc1)C(=O)C(=O)NCCNS(=O)(=O)c1ccccc1)N[N+](=O)[O-]` (stereo partly drawn), the affinity corresponds to a Ki of 1.1 nM. Molecule `NCCNC(=O)C(=O)[C@H](Cc1ccccc1)NC(=O)[C@H](CCC/N=C(\N)N[N+](=O)[O-])NC(=O)C(CCCCCCCCN1C(=O)c2ccccc2C1=O)C1CCCC1` (stereo partly drawn) yielded a Ki of 67 nM. `NCCCC[C@H](NC(=O)C(CCCCCCCCN1C(=O)c2ccccc2C1=O)C1CCCC1)C(=O)N[C@@H](Cc1ccccc1)C(=O)C(=O)NCCNS(=O)(=O)c1ccccc1` (stereo partly drawn) showed a Ki of 22 nM. Still for that read-out and setting: under `CCNC(=O)C(=O)[C@H](Cc1ccccc1)NC(=O)[C@H](CCC/N=C(\N)N[N+](=O)[O-])NC(=O)C(CCCCCCCCN1C(=O)c2ccccc2C1=O)C1CCCC1` (stereo partly drawn) stands 12 nM.

Another assay relates to Proteasome. Description: Inhibitory activity against proteasome at 100 nM concentration. Format: subcellular.
On to `N=C(N)NCCC[C@H](NC(=O)C(CCCCCCCCN1C(=O)c2ccccc2C1=O)C1CCCC1)C(=O)N[C@@H](Cc1ccccc1)C(=O)C(=O)NCCNS(=O)(=O)c1ccccc1` (stereo partly drawn), for which the inhibition was 31%. On the same count and under the same terms, under `CC(C)(C)OC(=O)NCCCC[C@H](NC(=O)C(CCCCCCCCN1C(=O)c2ccccc2C1=O)C1CCCC1)C(=O)N[C@@H](Cc1ccccc1)C(=O)C(=O)NCCNS(=O)(=O)c1ccccc1` (stereo partly drawn) stands 48%. In the case of `CC(C)(C)OC(=O)/N=C(\NCCC[C@H](NC(=O)C(CCCCCCCCN1C(=O)c2ccccc2C1=O)C1CCCC1)C(=O)N[C@@H](Cc1ccccc1)C(=O)C(=O)NCCNS(=O)(=O)c1ccccc1)NC(=O)OC(C)(C)C` (stereo partly drawn), the inhibition turned out to be 34%.

For a further assay, the system named is Proteasome. The assay is described as follows: Inhibitory activity against proteasome at 1 uM concentration. It is filed as subcellular.
Turning to `N/C(=N/CCCC(NC(=O)OCc1ccccc1)C(=O)N[C@@H](Cc1ccccc1)C(=O)C(=O)NCCNS(=O)(=O)c1ccccc1)N[N+](=O)[O-]` (stereo partly drawn), the inhibition was 34%.
